Data published in US4863951A, “Pharmacologically active amino-5,6,7,8-tetrahydronaphtho [2,3-B] furan compounds” (ADIR Et Cie, priority 1987, dated 1989).
Where a name gives a salt, the structure may show the parent alone.

Experiments:
[1] = tested on: apomorphine-induced rearing-up; test: Antagonism of apomorphine-induced rearing-up behavior in mice; assay type: in vivo; conditions: apomorphine 0.75 mg.kg^-1 s.c.; for change in vivo at 2.5 mg/kg / change in vivo at 5 mg/kg / change in vivo at 10 mg/kg / change in vivo at 20 mg/kg: Mus musculus, ip; for change in vivo at 2.5 mg/kg: read-out: % inhibition of rearing-up, mice, i.p. dose 2.5 mg.kg^-1; for change in vivo at 5 mg/kg: read-out: % inhibition of rearing-up, mice, i.p. dose 5 mg.kg^-1; for change in vivo at 10 mg/kg: read-out: % inhibition of rearing-up, mice, i.p. dose 10 mg.kg^-1; for change in vivo at 20 mg/kg: read-out: % inhibition of rearing-up, mice, i.p. dose 20 mg.kg^-1; for % inhibition of rearing-up: mice, hydrochloride
Procedure: Studied in the test of antagonism of apomorphine-induced rearing-up following the subcutaneous administration of a dose of 0.75 mg.kg^-1 of this substance in mice, the compounds of general formula I act in a clear-cut manner at doses greater than or equal to 2.5 mg.kg^-1 (i.p.). The same results are observed when the compounds of general formula I are administered orally at a dose of 20 mg.kg^-1. The activity of the compounds was assessed according to the method described by Protais P, Costentin J and Schwartz J. C. in Psychopharmacology (1976), 50, p. 1-6.
(s=significant difference, p<0.05).

[2] = tested on: apomorphine-induced stereotypy; test: Antagonism of apomorphine-induced stereotypy in rats; assay type: in vivo; conditions: apomorphine 1.5 mg.kg^-1 i.p., 30 minutes; for change in vivo at 10 mg/kg: read-out: % ISS (inhibition (-) or potentiation (+) of the stereotypy score), rats, i.p. dose 10 mg.kg^-1; for % ISS (inhibition (-) or potentiation (+) of the stereotypy score): rats, hydrochloride
Procedure: The inhibitory activity of the compounds of the invention with respect to apomorphine- or amphetamine-induced stereotypy in rats was assessed using the scale of scoring of stereotyped movements described by Quinton R. M. and Halliwell G. in Nature (1963), 200, p. 178-179.
Apomorphine or amphetamine was administered to the animals intraperitoneally at a dose of 1.5 mg.kg^-1. The percentage inhibition (-) or potentiation (+) of the stereotypy score (% ISS) shown in Tables IV and V for apomorphine corresponds to a measurement time of 30 minutes. In contrast, the percentage inhibition of the stereotypy score shown in Table VI for amphetamine corresponds to a measurement time of 3 hours. […]

[3] = tested on: apomorphine-induced hypothermia; test: Antagonism with respect to apomorphine-induced hypothermia in mice; assay type: in vivo; conditions: apomorphine 1 mg.kg^-1 s.c., after 2 hours; for change in vivo at 2.5 mg/kg / change in vivo at 5 mg/kg / change in vivo at 10 mg/kg / change in vivo at 20 mg/kg: Mus musculus, ip, 2 h; for change in vivo at 2.5 mg/kg: read-out: % antagonism of hypothermia, mice, i.p. dose 2.5; for change in vivo at 5 mg/kg: read-out: % antagonism of hypothermia, mice, i.p. dose 5; for change in vivo at 10 mg/kg: read-out: % antagonism of hypothermia, mice, i.p. dose 10; for change in vivo at 20 mg/kg: read-out: % antagonism of hypothermia, mice, i.p. dose 20; for % antagonism of hypothermia: mice, hydrochloride
Procedure: Testing for an antagonism with respect to apomorphine-induced hypothermia in mice was performed according to the method described by CHERMAT R. and PONCELET M. in J. Pharmac. (1983), 14, No. 1, p. 93-97. The dose of apomorphine administered subcutaneously was 1 mg.kg^-1. Tables VII and VIII show the percentage antagonism of the hypothermia observed after 2 hours.

[4] = tested on: isolation-induced aggression; test: Antiaggressive effects: isolation-induced aggression in mice; assay type: in vivo; conditions: isolated mice, i.p.
Excerpt: (§1) The antiaggressive effects of the compounds of the invention were investigated by two methods, one of them testing for an inhibition of aggressive behavior in peviously isolated mice (Yen C. Y., Stanger A. L., and Millman N, Arch. Int. Pharmacodyn. Therap. (1959), 123, p. 179-185), and the other in isolated and bulbectomized rats (Garattini S. and Sigg E. B. "Aggressive Behaviour" p. 47-55 Ed. Excerpta Medica Found., Amsterdam, 1969).
(§2) (Tables IX and X, s=significant, p<0.05).

[5] = tested on: aggression of isolated, bulbectomized rats; test: Antiaggressive effects: aggression of isolated, bulbectomized rats; assay type: in vivo; conditions: i.p.
Excerpt: as §1, §2

[6] = tested on: reserpine-induced hypothermia; test: Antagonism of reserpine-induced hypothermia; assay type: in vivo, Swiss CD male mice; conditions: mice, reserpine 2.5 mg.kg^-1 i.p.
Procedure: (§3) The antidepressant effects of the compounds of the invention were investigated by assessing the antagonism of reserpine-induced hypothermia and the antagonism of the ponto-geniculo-occipital waves induced by the compound Ro4-1284 in cats.
The study is carried out on Swiss CD male mice (27-28 g). After distribution into groups of 10 animals each, reserpine is injected intraperitoneally at a dose of 2.5 mg.kg^-1. Three hours later, the compounds undergoing trial are administered intraperitoneally. The rectal temperature of the animals is measured one hour and two hours after the second treatment, and compared with the initial temperature To of these same animals, measured immediately before the administration of the compounds undergoing trial.

[7] = tested on: ponto-geniculo-occipital (P.G.O.) waves induced by Ro4-1284; test: Antagonism of the ponto-geniculo-occipital (P.G.O.) waves induced by Ro4-1284; assay type: in vivo; conditions: Felis catus, iv, cats, i.v., read-out: ED50 (effective dose inhibiting by 50% the number of P.G.O. waves)
Procedure: as §3
This study was performed according to the method of Ruch-Monachon M. A., Jalfre M. and Haefely W. described in Arch. Int. Pharm. Therap., (1976), 219, No. 2, p. 251-346, and it enabled the effective dose (i.v) inhibiting by 50% (ED50) the number of P.G.O waves to be assessed.

[8] = tested on: interoceptive stimulus of apomorphine; test: Drug discrimination in rats (generalization with apomorphine); assay type: in vivo; conditions: 2.5 mg.kg^-1 i.p., 30 minutes before test, hydrochloride
Procedure: Rats were trained to discriminate between the effect of the interoceptive stimulus of apomorphine (0.2 mg.kg^-1 i.p.) and that of physiological saline, according to a principle described by Colpaert F. in "Drug discrimination application in C.N.S. Pharmacology" Ed. Elsevier Biomedical 1982, Amsterdam. […]
Under the experimental conditions employed, the behavior shown by the animals coincides with that noted in the case of administration of apomorphine.

[9] = 10 mg.kg^-1 i.p., hydrochloride
[10] = 20 mg.kg^-1 i.p., hydrochloride

## CN(C)C1CCc2cc3c(cc2C1)OCC3 (racemic) [Example 6, dl-7-(N,N-Dimethylamino)-2,3,5,6,7,8-hexahydronaphtho[2,3-b]furan hydrochloride]
[1]
  change in vivo at 2.5 mg/kg: -17%
  change in vivo at 5 mg/kg: -54%
  change in vivo at 10 mg/kg: -94%
  change in vivo at 20 mg/kg: -100%
[2]; Rattus norvegicus, ip, 0.5 h
  change in vivo at 10 mg/kg: -48%
[2]; Rattus norvegicus, ip, 0.5 h, read-out: % ISS (inhibition (-) or potentiation (+) of the stereotypy score), rats, i.p. dose 20 mg.kg^-1
  change in vivo at 20 mg/kg: -58%
[3]
  change in vivo at 2.5 mg/kg: 6%
  change in vivo at 5 mg/kg: -6%
  change in vivo at 10 mg/kg: -25%
  change in vivo at 20 mg/kg: -48%
[4]; 2.5 mg.kg^-1
  % of pairs of mice showing no sign of fighting: 40%
[4]; 5 mg.kg^-1
  % of pairs of mice showing no sign of fighting: 44%
[4]; 10 mg.kg^-1
  % of pairs of mice showing no sign of fighting: 78%
[5]; 2.5 mg.kg^-1
  % of rats rendered non-aggressive: 30%
[6]; 2.5 mg.kg^-1 i.p.
  % inhibition of hypothermia: -1%
[6]; 5 mg.kg^-1 i.p.
  % inhibition of hypothermia: +1%
[6]; 10 mg.kg^-1 i.p.
  % inhibition of hypothermia: -24%
[6]; 20 mg.kg^-1 i.p.
  % inhibition of hypothermia: -20%
[7]
  ED50: 0.498 mg/kg

## CNC1CCc2cc3c(cc2C1)OCC3 (racemic) [Example 9, dl-7-(N-Methylamino)-2,3,5,6,7,8-hexahydronaphtho[2,3-b]furan hydrochloride]
[1]
  change in vivo at 2.5 mg/kg: -46%
  change in vivo at 5 mg/kg: -65%
  change in vivo at 10 mg/kg: -100%
  change in vivo at 20 mg/kg: -100%
[3]
  change in vivo at 2.5 mg/kg: -39%
  change in vivo at 5 mg/kg: -67%
  change in vivo at 10 mg/kg: -86%
  change in vivo at 20 mg/kg: -84%
[4]; 2.5 mg.kg^-1
  % of pairs of mice showing no sign of fighting: 67%
[4]; 5 mg.kg^-1
  % of pairs of mice showing no sign of fighting: 56%
[4]; 10 mg.kg^-1
  % of pairs of mice showing no sign of fighting: 89%
[5]; 2.5 mg.kg^-1
  % of rats rendered non-aggressive: 27%
[5]; 5 mg.kg^-1
  % of rats rendered non-aggressive: 58%
[6]; 2.5 mg.kg^-1 i.p.
  % inhibition of hypothermia: -8%
[6]; 5 mg.kg^-1 i.p.
  % inhibition of hypothermia: +37%
[6]; 10 mg.kg^-1 i.p.
  % inhibition of hypothermia: +16%
[6]; 20 mg.kg^-1 i.p.
  % inhibition of hypothermia: +11%
[7]
  ED50: 0.173 mg/kg

## NC1CCc2cc3c(cc2C1)OCC3 (stereo not drawn) [Example 4, l-7-Amino-2,3,5,6,7,8-hexahydronaphtho[2,3-b]furan hydrochloride]
[1]; i.p. dose 10 mg.kg^-1
  % inhibition of rearing-up: -24%
[1]; i.p. dose 20 mg.kg^-1
  % inhibition of rearing-up: -86%
[3]; i.p. dose 2.5
  % antagonism of hypothermia: -8%
[3]; i.p. dose 5
  % antagonism of hypothermia: -3%
[3]; i.p. dose 10
  % antagonism of hypothermia: -11%
[3]; i.p. dose 20
  % antagonism of hypothermia: -19%
[4]; 2.5 mg.kg^-1, hydrochloride
  % of pairs of mice showing no sign of fighting: 22%
[4]; 5 mg.kg^-1, hydrochloride
  % of pairs of mice showing no sign of fighting: 44%
[5]; 2.5 mg.kg^-1, hydrochloride
  % of rats rendered non-aggressive: 12%
[8]
  % of animals which generalize: 70%
  Number of animals showing the effect of generalization with apomorphine: 7/10

## CNC1CCc2cc3c(cc2C1)OCC3 (stereo not drawn) [Example 38, d-7-(N-Methylamino)-2,3,5,6,7,8-hexahydronaphtho[2,3-b]furan hydrochloride]
[1]
  change in vivo at 2.5 mg/kg: -76%
  change in vivo at 5 mg/kg: -100%
[2]; Rattus norvegicus, ip, 0.5 h, read-out: % ISS (inhibition (-) or potentiation (+) of the stereotypy score), rats, i.p. dose 5 mg.kg^-1
  change in vivo at 5 mg/kg: -60%
[2]; Rattus norvegicus, ip, 0.5 h
  change in vivo at 10 mg/kg: -54%
[3]
  change in vivo at 2.5 mg/kg: -48%
  change in vivo at 5 mg/kg: -91%
  change in vivo at 10 mg/kg: -112%
  change in vivo at 20 mg/kg: -119%
[4]; 5 mg.kg^-1, hydrochloride
  % of pairs of mice showing no sign of fighting: 70%
[5]; 2.5 mg.kg^-1
  % of rats rendered non-aggressive: 37%
[5]; 5 mg.kg^-1, hydrochloride
  % of rats rendered non-aggressive: 75%
[6]; 2.5 mg.kg^-1 i.p., hydrochloride
  % inhibition of hypothermia: -28%
[6]; 5 mg.kg^-1 i.p., hydrochloride
  % inhibition of hypothermia: -35%
[6]; [9]
  % inhibition of hypothermia: -21%

## CN(C)C1CCc2cc3c(cc2C1)OCC3 (stereo not drawn) [Example 40, d-7-(N,N-Dimethylamino)-2,3,5,6,7,8-hexahydronaphtho[2,3,-b]furan hydrochloride]
[1]
  change in vivo at 2.5 mg/kg: -75%
  change in vivo at 5 mg/kg: -100%
[2]; i.p. dose 10 mg.kg^-1
  % ISS (inhibition (-) or potentiation (+) of the stereotypy score): -61%
[2]; i.p. dose 20 mg.kg^-1
  % ISS (inhibition (-) or potentiation (+) of the stereotypy score): -67%
[3]
  change in vivo at 10 mg/kg: -44%
  change in vivo at 20 mg/kg: -73%
[4]; 5 mg.kg^-1, hydrochloride
  % of pairs of mice showing no sign of fighting: 22%
[4]; 10 mg.kg^-1, hydrochloride
  % of pairs of mice showing no sign of fighting: 50%
[5]; 10 mg.kg^-1, hydrochloride
  % of rats rendered non-aggressive: 42%
[6]; [9]
  % inhibition of hypothermia: +14%
[6]; [10]
  % inhibition of hypothermia: +14%

## CN(C)C1CCc2cc3c(cc2C1)OCC3 (stereo not drawn) [Example 41, l-7-(N,N-Dimethylamino)-2,3,5,6,7,8-hexahydronaphtho[2,3-b]furan hydrochloride]
[2]; i.p. dose 10 mg.kg^-1
  % ISS (inhibition (-) or potentiation (+) of the stereotypy score): +11%
[2]; i.p. dose 20 mg.kg^-1
  % ISS (inhibition (-) or potentiation (+) of the stereotypy score): +3%
[4]; 5 mg.kg^-1, hydrochloride
  % of pairs of mice showing no sign of fighting: 66%
[4]; 10 mg.kg^-1, hydrochloride
  % of pairs of mice showing no sign of fighting: 90%
[5]; 10 mg.kg^-1, hydrochloride
  % of rats rendered non-aggressive: 50%
[6]; [9]
  % inhibition of hypothermia: +13%
[6]; [10]
  % inhibition of hypothermia: +29%
